The text below walks through data of US6878716B1, “Compounds specific to adenosine A1 receptor and uses thereof” (OSI Pharmaceuticals, Inc., priority 1998, dated 2005).

Molecules are shown by their SMILES. Where two headings read alike, the source gives them in different places.

One experiment addresses T1, A1 adenosine receptor (Homo sapiens, UniProt P30542).
T1 sequence (P30542 1-326): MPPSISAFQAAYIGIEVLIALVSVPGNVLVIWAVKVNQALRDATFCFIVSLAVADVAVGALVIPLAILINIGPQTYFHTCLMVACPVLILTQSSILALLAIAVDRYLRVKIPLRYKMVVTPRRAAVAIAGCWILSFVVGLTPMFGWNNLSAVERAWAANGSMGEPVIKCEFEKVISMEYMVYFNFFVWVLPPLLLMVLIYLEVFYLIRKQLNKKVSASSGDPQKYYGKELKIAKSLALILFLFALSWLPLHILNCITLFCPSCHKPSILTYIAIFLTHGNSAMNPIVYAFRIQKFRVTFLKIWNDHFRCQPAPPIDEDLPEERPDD
To be noted: reported value; cited from earlier work.

The target of experiment [1] is T2, human adenosine A1 receptor (Homo sapiens, UniProt P30542).
T2 sequence (P30542 1-326): T1 sequence (P30542 1-326)
The experiment is described as follows: Yeast β-Galactosidase reporter gene assay, inhibition of NECA-induced activity (strain CY12660). A general note: Reporter assays use an easily measured gene product as a stand-in for the process of interest.

The target in experiment [2] is T3, human A1 receptor subtype (Homo sapiens, UniProt P30542).
T3 sequence (P30542 1-326): T1 sequence (P30542 1-326)
Kind of experiment: biochemical.

Experiment [3] addresses T4, human A2a receptor subtype (Homo sapiens, UniProt P29274).
T4 construct: expressed in transfected cells; host or cells: HEK-293 (Cadus clone # 5)
The experiment is described as follows: Adenosine 2a receptor subtype competition radioligand binding ([3H]CGS-21680, HEK293 membranes). To be noted: Table 13, % value; footnote 8: % activity @ 10 μM.

Experiment [4] addresses T3, human A1 receptor subtype. The conditions noted are these: Table 13, % value; footnote 8: % activity @ 10 μM.
Where [5] appears, read: read-out: A1 Yeast IC50, Table 10.

T4 sequence (P29274 whole entry): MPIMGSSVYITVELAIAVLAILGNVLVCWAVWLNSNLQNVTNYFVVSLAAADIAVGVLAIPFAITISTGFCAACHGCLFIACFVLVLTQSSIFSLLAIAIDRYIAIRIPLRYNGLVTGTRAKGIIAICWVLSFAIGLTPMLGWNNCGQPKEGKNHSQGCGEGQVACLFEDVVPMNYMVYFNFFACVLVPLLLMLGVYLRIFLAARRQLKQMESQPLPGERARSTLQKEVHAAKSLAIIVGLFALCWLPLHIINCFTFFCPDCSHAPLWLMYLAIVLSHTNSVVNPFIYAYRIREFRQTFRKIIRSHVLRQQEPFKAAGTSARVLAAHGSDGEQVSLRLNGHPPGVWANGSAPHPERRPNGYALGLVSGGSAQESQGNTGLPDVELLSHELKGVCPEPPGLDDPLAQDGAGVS

On to `C[C@H](Cc1ccccc1)Nc1ncnc2c1ncn2[C@@H]1O[C@H](CO)[C@@H](O)[C@H]1O` (single isomer, unassigned) [R-PIA, (−)-N6-(2-phenylisopropyl)-adenosine], for which the “affinity (reported)” value on A1 adenosine receptor is on record as “approximately 50 nM”.

For `Cc1[nH]c2nc(-c3ccccc3)nc(NCCNS(C)(=O)=O)c2c1C` [Compound 1007], in experiment [1] (setting [5]), the IC50 was greater than 10 µM.

With `Cc1[nH]c2nc(-c3ccccc3)nc(NCCNC(=O)CCN)c2c1C` [Compound 1009], in experiment [1] (setting [5]), the IC50 is greater than 10 µM.

Take `CCC(=O)NCCCNc1nc(-c2ccccc2)nc2[nH]c(C)c(C)c12` [Compound 1012]: the Ki in experiment [2] is 0.234 µM. In experiment [1], this compound displayed an IC50 of 3.46 µM.

In the case of `CNC(=O)NCCCNc1nc(-c2ccccc2)nc2[nH]c(C)c(C)c12` [Compound 1310], in experiment [3], the A2a % activity is 76%.

`Cc1[nH]c2nc(-c3ccccc3)nc(NCCNC(=O)C3(N)CC3)c2c1C` [Compound 1313] yielded an A1 % activity in experiment [4] of 30%. The compound further came in with an A2a % activity in experiment [3] of 65%.

A word on the IC50: it is the concentration needed to halve the response being measured. Broadly, the Ki is the dissociation constant of the complex between target and ligand, obtained from inhibition or displacement. Lower therefore signals higher affinity.
